Experiments:
Format in all cases: cell-based, human
[1] = system: MPAF cells; assay: XTT cell viability assay, MPAF fibroblast control; settings: for IC50: XTT viability
Method: (§1) The following cell lines were used 2102EP, 2102EP-R, NCCIT, NCCIT-R (all ECs), TCam2 (seminoma cell line), FS1 (Sertoli cell line) and MPAF (human adult fibroblast cell line). Cells were cultivated as described previously. In brief, the ECs were cultivated in Dulbecco’s modified Eagle’s medium (DMEM) supplemented with 10% fetal bovine serum (FBS), 1% penicillin–streptomycin and […] L-glutamine. FS1 cells were grown in DMEM supplemented with 20% FSB, 1% penicillin–streptomycin, 200 mM L-glutamine and 1% nonessential amino acids (NEAA). MPAF cells were cultured in DMEM supplemented with 10% FBS, 1% penicillin–streptomycin, 200 mM L-glutamine and 1% NEAA. TCam2 cell line was cultured in RPMI medium supplemented with 10% FBS, 1% penicillin–streptomycin and […] L-glutamine. All cell lines were kept at 37 °C and 7.5% CO2. 2102EP and NCCIT were a kind gift from Prof. Dr. L. Looijenga (Princess Máxima Center for Pediatric Oncology, Utrecht, The Netherlands). Cisplatin-resistant lines 2102EP-R and NCCIT-R were obtained from PD Dr. F. Honecker (Breast and Tumor Center, ZeTup Silberturm, St. Gallen, Switzerland). MPAFs were a kind gift from […] (Bonn University, Institute of Reconstructive Neurobiology, Bonn, Germany). FS1 cells were obtained from Prof. Dr. V. Schumacher (Boston Children’s Hospital, Department of Urology; Harvard Medical School, Department of Surgery, Boston, MA, USA).
(§2) The assay was performed based on the reduction in XTT tetrazolium salt as described previously. In summary, 3000 cells were seeded per well of a 96-well cell culture plate in 100 µL of cell culture medium. The next day, cells were treated with CDK inhibitor or CDK degrader for 24/48/72 h. For XTT assay, 0.6 mg/mL XTT sodium salt was dissolved in cell culture medium (DMEM or RPMI) and supplemented with 25 µM electron carrier N-methyl dibenzopyrazine methyl sulfate (PMS). A total of 50 µL of XTT/PMS was added to each well and incubated for 4 h at 37 °C, 7.5% CO2. For readout, absorption was measured at 450 nm and 650 nm. Specific XTT signal (450 nm) was subtracted by nonspecific absorbance (650) and blank (cell culture medium). Averages of technical triplicates were calculated, and treated sample was referenced to the corresponding dimethyl sufoxide (DMSO) control. Experiment was repeated several times to obtain biological replicates. For statistical analysis, two-tailed Student’s t-test was applied.

[2] = system: TGCT cell lines; assay: XTT cell viability assay, summarised over TGCT tumor cell lines; settings: for viability (XTT): EC cell lines (2102EP, 2102EP-R, NCCIT, NCCIT-R); for IC50: Homo sapiens, 72 h, tumor (TGCT) cell lines, XTT viability, read-out: IC50 at 72 h, range over tumor cell lines
Method: as §1, §2

[3] = system: 2102EP cells; assay: XTT cell viability assay, 2102EP
Method: as §1, §2

[4] = system: 2102EP-R cells; assay: XTT cell viability assay, 2102EP-R (cisplatin-resistant)
Method: as §1, §2

[5] = system: NCCIT cells; assay: XTT cell viability assay, NCCIT
Method: as §1, §2

[6] = system: NCCIT-R cells; assay: XTT cell viability assay, NCCIT-R (cisplatin-resistant)
Method: as §1, §2

[7] = system: TCam2 cells; assay: XTT cell viability assay, TCam2
Method: as §1, §2

[8] = system: FS1 cells; assay: XTT cell viability assay, FS1 Sertoli control
Method: as §1, §2

[9] = system: TGCT and control cell lines; assay: 7AAD/AnnexinV FACS apoptosis analysis, TGCT and control cell lines; settings: 100 nM, 24 and 48 h
Method: (§3) Cells were seeded in 6-well cell culture plates (1.5 × 10^5 cells/well). […] For cell cycle analysis, cells were harvested after 20 h of treatment and resuspended in PBS. Ice-cold methanol was added dropwise while shaking until 70% methanol v/v was reached. Cells were incubated for 2 h at 4 °C and subsequently washed twice with cold PBS. Staining (2 µg/mL Hoechst-33342, 50 µg/mL RNaseA in PBS) was performed for 30 min at 37 °C. The cell cycle distribution was measured in an FACS Canto (BD BioSciences, Heidelberg, Germany) and analyzed using FlowJo™ v10.8 Software (BD BioSciences, Heidelberg, Germany). For apoptosis analysis, PE AnnexinV Apoptosis Detection Kit with 7-AAD (BioLegend, San Diego, CA USA) was used according to the manufacturer’s manual. Measurement was performed in an FACS Canto while analysis was performed in the corresponding BD FACSDiva software^TM (BD BioSciences, Heidelberg, Germany). Two-tailed Student’s t-test was applied for calculation of significance.

[10] = system: TGCT and control cell lines; assay: Hoechst-FACS cell cycle analysis; settings: 20 h; NVP2 and SY0351 10 nM, YKL-5-124 and THZ531 100 nM
Method: as §3

CCc1cnn2c(NCc3ccc[n+]([O-])c3)cc(N3CCCC[C@H]3CCO)nc12 [Dinaciclib, dinaciclib]
sensitivity (XTT viability) [1]: almost resistant
viability (XTT) ([2]; 1 nM): strong decrease in viability

CN1CC[C@H](c2c(O)cc(O)c3c(=O)cc(-c4ccccc4Cl)oc23)[C@H](O)C1 [Flavo-Piridol, flavopiridol]
IC50 ([3]; Homo sapiens, 24 h): > 1000 nM
IC50 ([3]; Homo sapiens, 48 h): 39.9 nM
IC50 ([3]; Homo sapiens, 72 h): 18 nM
IC50 ([4]; Homo sapiens, 24 h): > 1000 nM
IC50 ([4]; Homo sapiens, 48 h): 21.9 nM
IC50 ([4]; Homo sapiens, 72 h): 7.56 nM
IC50 ([5]; Homo sapiens, 24 h): 710 nM
IC50 ([5]; Homo sapiens, 48 h): 21.9 nM
IC50 ([5]; Homo sapiens, 72 h): 34.1 nM
IC50 ([6]; Homo sapiens, 24 h): 639 nM
IC50 ([6]; Homo sapiens, 48 h): 107 nM
IC50 ([6]; Homo sapiens, 72 h): 43.3 nM
IC50 ([7]; Homo sapiens, TCam2, 24 h): > 1000 nM
IC50 ([7]; Homo sapiens, TCam2, 48 h): 582 nM
IC50 ([7]; Homo sapiens, TCam2, 72 h): 273 nM
IC50 ([8]; Homo sapiens, FS1, 24 h): > 1000 nM
IC50 ([8]; Homo sapiens, FS1, 48 h): 696 nM
IC50 ([8]; Homo sapiens, FS1, 72 h): 91.5 nM
sensitivity (XTT viability) [1]: almost resistant
IC50 ([1]; Homo sapiens, Fibroblast, 24 h): > 1000 nM
IC50 ([1]; Homo sapiens, Fibroblast, 48 h): > 1000 nM
IC50 ([1]; Homo sapiens, Fibroblast, 72 h): > 1000 nM
viability (XTT) ([2]; 50 nM): strong decrease in viability
IC50 [2]: 7.5 to 273 nM

CC(C)(C)c1cnc(CSc2cnc(NC(=O)C3CCN(CC(=O)NCCOCCOCCOCCNc4cccc5c4C(=O)N(C4CCC(=O)NC4=O)C5=O)CC3)s2)o1 (centres unmarked) [THAL-SNS-032]
IC50 ([3]; Homo sapiens, 24 h): 164 nM
IC50 ([3]; Homo sapiens, 48 h): 39.5 nM
IC50 ([3]; Homo sapiens, 72 h): 34.8 nM
IC50 ([5]; Homo sapiens, 24 h): 149 nM
IC50 ([5]; Homo sapiens, 48 h): 50.6 nM
IC50 ([5]; Homo sapiens, 72 h): 30.1 nM
IC50 ([7]; Homo sapiens, TCam2, 24 h): 140 nM
IC50 ([7]; Homo sapiens, TCam2, 48 h): 76.7 nM
IC50 ([7]; Homo sapiens, TCam2, 72 h): 39.6 nM
IC50 ([8]; Homo sapiens, FS1, 24 h): > 1000 nM
IC50 ([8]; Homo sapiens, FS1, 48 h): > 1000 nM
IC50 ([8]; Homo sapiens, FS1, 72 h): > 1000 nM
viability (XTT) ([1]; 1 and 10 nM): not affected
viability (XTT) ([1]; 100 and 500 nM): minimal decrease in viability
IC50 ([1]; Homo sapiens, Fibroblast, 24 h): > 1000 nM
IC50 ([1]; Homo sapiens, Fibroblast, 48 h): > 1000 nM
IC50 ([1]; Homo sapiens, Fibroblast, 72 h): > 1000 nM
IC50 [2]: 30 to 40 nM

CN(C)C/C=C/C(=O)Nc1ccc(C(=O)Nc2cccc(Nc3ncc(Cl)c(-c4c[nH]c5ccccc45)n3)c2)cc1 [THZ1]
IC50 ([3]; 24 h): 95.6 nM
IC50 ([3]; 48 h): 26.3 nM
IC50 ([3]; 72 h): 6.7 nM
IC50 ([4]; 24 h): 235 nM
IC50 ([4]; 48 h): 16.3 nM
IC50 ([4]; 72 h): 9.9 nM
IC50 ([5]; 24 h): > 1000 nM
IC50 ([5]; 48 h): 92.9 nM
IC50 ([5]; 72 h): 9.3 nM
IC50 ([6]; 24 h): 929 nM
IC50 ([6]; 48 h): 145 nM
IC50 ([6]; 72 h): 16.2 nM
IC50 ([7]; TCam2, 24 h): > 1000 nM
IC50 ([7]; TCam2, 48 h): > 1000 nM
IC50 ([7]; TCam2, 72 h): 847 nM
IC50 ([8]; FS1, 24 h): > 1000 nM
IC50 ([8]; FS1, 48 h): > 1000 nM
IC50 ([8]; FS1, 72 h): > 1000 nM
IC50 ([1]; 24 h): > 1000 nM
IC50 ([1]; 48 h): > 1000 nM
IC50 ([1]; 72 h): > 1000 nM

CN(C)C/C=C/C(=O)Nc1ccc(C(=O)N2CCC[C@@H](Nc3ncc(Cl)c(-c4c[nH]c5ccccc45)n3)C2)cc1 [THZ531]
IC50 ([3]; Homo sapiens, 24 h): > 1000 nM
IC50 ([3]; Homo sapiens, 48 h): 180 nM
IC50 ([3]; Homo sapiens, 72 h): 74.5 nM
IC50 ([4]; Homo sapiens, 24 h): > 1000 nM
IC50 ([4]; Homo sapiens, 48 h): 228 nM
IC50 ([4]; Homo sapiens, 72 h): 164 nM
IC50 ([5]; Homo sapiens, 24 h): > 1000 nM
IC50 ([5]; Homo sapiens, 48 h): > 1000 nM
IC50 ([5]; Homo sapiens, 72 h): 96.6 nM
IC50 ([6]; Homo sapiens, 24 h): > 1000 nM
IC50 ([6]; Homo sapiens, 48 h): > 1000 nM
IC50 ([6]; Homo sapiens, 72 h): 137 nM
IC50 ([7]; Homo sapiens, TCam2, 24 h): > 1000 nM
IC50 ([7]; Homo sapiens, TCam2, 48 h): > 1000 nM
IC50 ([7]; Homo sapiens, TCam2, 72 h): > 1000 nM
IC50 ([8]; Homo sapiens, FS1, 24 h): > 1000 nM
IC50 ([8]; Homo sapiens, FS1, 48 h): > 1000 nM
IC50 ([8]; Homo sapiens, FS1, 72 h): > 1000 nM
IC50 ([1]; Homo sapiens, Fibroblast, 24 h): > 1000 nM
IC50 ([1]; Homo sapiens, Fibroblast, 48 h): > 1000 nM
IC50 ([1]; Homo sapiens, Fibroblast, 72 h): > 1000 nM
apoptosis induction ([9]; tumor cell lines): moderate increase in apoptosis induction
effect on cell cycle [10]: only mild effects on the cell cycle

C=CC(=O)Nc1ccc(C(=O)Nc2[nH]nc3c2CN(C(=O)N[C@H](CN(C)C)c2ccccc2)C3(C)C)cc1 [YKL-5-124]
IC50 ([3]; 24 h): 318 nM
IC50 ([3]; 48 h): 43.6 nM
IC50 ([3]; 72 h): 17.2 nM
IC50 ([4]; 24 h): > 1000 nM
IC50 ([4]; 48 h): 30.5 nM
IC50 ([4]; 72 h): 23.6 nM
IC50 ([5]; 24 h): > 1000 nM
IC50 ([5]; 48 h): > 1000 nM
IC50 ([5]; 72 h): 121 nM
IC50 ([6]; 24 h): > 1000 nM
IC50 ([6]; 48 h): > 1000 nM
IC50 ([6]; 72 h): 178 nM
IC50 ([7]; TCam2, 24 h): > 1000 nM
IC50 ([7]; TCam2, 48 h): > 1000 nM
IC50 ([7]; TCam2, 72 h): 263 nM
IC50 ([8]; FS1, 24 h): > 1000 nM
IC50 ([8]; FS1, 48 h): > 1000 nM
IC50 ([8]; FS1, 72 h): 95.2 nM
IC50 ([1]; 24 h): > 1000 nM
IC50 ([1]; 48 h): > 1000 nM
IC50 ([1]; 72 h): > 1000 nM
viability (XTT) ([1]; highest concentration tested (500 nM)): unaffected
apoptosis, fold change over DMSO control [9]: up to 2.8 fold
apoptosis, treatment vs control ([9]; FS1 and MPAF cells): almost no difference between treatment and control
effect on cell cycle [10]: only mild effects on the cell cycle

— paper PMC8997165, “Transcriptional CDK Inhibitors as Potential Treatment Option for Testicular Germ Cell Tumors” (Cancers, 2022)
